Assay results published in ChEMBL document CHEMBL1938275, “Antibacterial activity of chalcones, hydrazones and oxadiazoles against methicillin-resistant Staphylococcus aureus” (Bioorg Med Chem Lett, 2012).
≈ marks a conversion by molar mass, not a printed value.

How the values were obtained:
Staphylococcus aureus [1] = experiment: Antibacterial activity against methicillin-sensitive Staphylococcus aureus ATCC 25923 after 24 hrs by broth microdilution method; assay type: functional; settings: ATCC 25923, 24 h
Staphylococcus aureus [2] = experiment: Antibacterial activity against methicillin-resistant Staphylococcus aureus isolate 5 at 30 ug after 24 hrs by disk diffusion assay; assay type: functional; settings: isolate 5, 24 h, read-out: DIZ
Staphylococcus aureus [3] = experiment: Antibacterial activity against methicillin-resistant Staphylococcus aureus isolate 4 at 30 ug after 24 hrs by disk diffusion assay; assay type: functional; settings: isolate 4, 24 h, read-out: DIZ
Staphylococcus aureus [4] = experiment: Antibacterial activity against methicillin-resistant Staphylococcus aureus isolate 2 after 24 hrs by broth microdilution method; assay type: functional; settings: isolate 2, 24 h
Staphylococcus aureus [5] = experiment: Antibacterial activity against methicillin-resistant Staphylococcus aureus isolate 7 after 24 hrs by broth microdilution method; assay type: functional; settings: isolate 7, 24 h
Staphylococcus aureus [6] = experiment: Antibacterial activity against methicillin-resistant Staphylococcus aureus isolate 14 after 24 hrs by broth microdilution method; assay type: functional; settings: isolate 14, 24 h
Staphylococcus aureus [7] = experiment: Antibacterial activity against methicillin-resistant Staphylococcus aureus isolate 11 after 24 hrs by broth microdilution method; assay type: functional; settings: isolate 11, 24 h
Staphylococcus aureus [8] = experiment: Antibacterial activity against methicillin-resistant Staphylococcus aureus isolate 9 after 24 hrs by broth microdilution method; assay type: functional; settings: isolate 9, 24 h
Staphylococcus aureus [9] = experiment: Antibacterial activity against methicillin-resistant Staphylococcus aureus isolate 5 after 24 hrs by broth microdilution method; assay type: functional; settings: isolate 5, 24 h
Staphylococcus aureus [10] = experiment: Antibacterial activity against methicillin-resistant Staphylococcus aureus isolate 12 after 24 hrs by broth microdilution method; assay type: functional; settings: isolate 12, 24 h
Staphylococcus aureus [11] = experiment: Antibacterial activity against methicillin-resistant Staphylococcus aureus isolate 10 after 24 hrs by broth microdilution method; assay type: functional; settings: isolate 10, 24 h
Staphylococcus aureus [12] = experiment: Antibacterial activity against methicillin-resistant Staphylococcus aureus isolate 13 after 24 hrs by broth microdilution method; assay type: functional; settings: isolate 13, 24 h
[13] = Cytotoxicity against african green monkey Vero cells assessed as cell death after 72 hrs by MTT assay; assay type: cell-based; settings: chlorocebus sabaeus
Staphylococcus aureus [14] = experiment: Antibacterial activity against methicillin-resistant Staphylococcus aureus isolate 6 after 24 hrs by broth microdilution method; assay type: functional; settings: isolate 6, 24 h
Staphylococcus aureus [15] = experiment: Antibacterial activity against methicillin-resistant Staphylococcus aureus isolate 4 after 24 hrs by broth microdilution method; assay type: functional; settings: isolate 4, 24 h
Staphylococcus aureus [16] = experiment: Antibacterial activity against methicillin-resistant Staphylococcus aureus isolate 8 after 24 hrs by broth microdilution method; assay type: functional; settings: isolate 8, 24 h
Staphylococcus aureus [17] = experiment: Antibacterial activity against methicillin-resistant Staphylococcus aureus isolate 3 after 24 hrs by broth microdilution method; assay type: functional; settings: isolate 3, 24 h
Vero = experiment: Cytotoxicity against African green monkey Vero cells assessed as inhibition of cell growth after 72 hrs by MTT assay; assay type: cell-based; settings: Chlorocebus sabaeus
Staphylococcus aureus [18] = experiment: Antibacterial activity against methicillin-resistant Staphylococcus aureus isolate 1 after 24 hrs by broth microdilution method; assay type: functional; settings: isolate 1, 24 h
Staphylococcus aureus [19] = experiment: Selectivity index, Ratio of CC50 for african green monkey Vero cells to IC50 for Staphylococcus aureus

SMILES | MIC (Staphylococcus aureus [1]) [µg/mL] | zone of inhibition at 30 µg/disc (Staphylococcus aureus [2]) [mm] | zone of inhibition at 30 µg/disc (Staphylococcus aureus [3]) [mm] | MIC (Staphylococcus aureus [4]) [µg/mL] | MIC (Staphylococcus aureus [5]) [µg/mL] | MIC (Staphylococcus aureus [6]) [µg/mL] | MIC (Staphylococcus aureus [7]) [µg/mL] | MIC (Staphylococcus aureus [8]) [µg/mL] | MIC (Staphylococcus aureus [9]) [µg/mL] | MIC (Staphylococcus aureus [10]) [µg/mL] | MIC (Staphylococcus aureus [11]) [µg/mL] | MIC (Staphylococcus aureus [12]) [µg/mL] | CC50 at 72 h [13] [µg/mL] | MIC (Staphylococcus aureus [14]) [µg/mL] | MIC (Staphylococcus aureus [15]) [µg/mL] | MIC (Staphylococcus aureus [16]) [µg/mL] | MIC (Staphylococcus aureus [17]) [µg/mL] | IC50 (Vero) [µg/mL] | MIC (Staphylococcus aureus [18]) [µg/mL] | Ratio CC50/IC50 (Staphylococcus aureus [19])
CC(C)=CCC/C(C)=C/Cc1c(O)ccc(C(=O)/C=C/c2ccc(O)c(CC=C(C)C)c2)c1O | 31.2 (≈ 67.7 µM) |  |  |  |  |  |  |  |  |  |  |  |  |  |  |  |  |  |  | 
CO[C@@]1(NC(=O)Cc2cccs2)C(=O)N2C(C(=O)O)=C(COC(N)=O)CS[C@@H]21 [CEFOXITIN] |  | 33 | 22 |  |  |  |  |  |  |  |  |  |  |  |  |  |  |  |  | 
O=C(/C=C/c1ccc(O)cc1)c1ccc(O)cc1O [ISOLIQUIRITIGENIN] | 31.2 (≈ 122 µM) |  |  | 62.5 (≈ 244 µM) | 62.5 (≈ 244 µM) | 62.5 (≈ 244 µM) | 62.5 (≈ 244 µM) | 62.5 (≈ 244 µM) | 62.5 (≈ 244 µM) | 62.5 (≈ 244 µM) | 62.5 (≈ 244 µM) | 62.5 (≈ 244 µM) | 464 (≈ 1810 µM) | 62.5 (≈ 244 µM) | 62.5 (≈ 244 µM) | 62.5 (≈ 244 µM) | 62.5 (≈ 244 µM) | 31.2 (≈ 122 µM) | 62.5 (≈ 244 µM) | 14.8
O=C(CCc1ccc(O)cc1)c1c(O)cc(O)cc1O [PHLORETIN] | 250 (≈ 912 µM) |  |  | 250 (≈ 912 µM) | 250 (≈ 912 µM) | 250 (≈ 912 µM) | 250 (≈ 912 µM) | 250 (≈ 912 µM) | 250 (≈ 912 µM) | 250 (≈ 912 µM) | 250 (≈ 912 µM) | 250 (≈ 912 µM) | 735 (≈ 2680 µM) | 250 (≈ 912 µM) | 250 (≈ 912 µM) | 250 (≈ 912 µM) | 250 (≈ 912 µM) | 125 (≈ 456 µM) | 250 (≈ 912 µM) | 5.9
CC(C)=CCc1c(O)ccc(C(=O)/C=C/c2ccc(O)cc2)c1O [ISOBAVACHALCONE] | 31.2 (≈ 96.3 µM) |  |  | 62.5 (≈ 193 µM) | 125 (≈ 385 µM) | 62.5 (≈ 193 µM) | 62.5 (≈ 193 µM) | 62.5 (≈ 193 µM) | 62.5 (≈ 193 µM) | 62.5 (≈ 193 µM) | 125 (≈ 385 µM) | 125 (≈ 385 µM) | 727 (≈ 2240 µM) | 62.5 (≈ 193 µM) | 15.6 (≈ 48.2 µM) | 125 (≈ 385 µM) | 62.5 (≈ 193 µM) | 31.2 (≈ 96.3 µM) | 62.5 (≈ 193 µM) | 23.25
